# From PMC6753678, “Fueling Open Innovation for Malaria Transmission-Blocking Drugs: Hundreds of Molecules Targeting Early Parasite Mosquito Stages” (Frontiers in Microbiology, 2019)
# Read-outs that look alike come from different tables or passages of the source.
# Columns and labels:
# HepG2 cells = assay: HepG2 cytotoxicity assay; conditions: for IC50: read-out: HepG2 cytotoxicity assay IC50, dose response confirmation; for Unified cytotox: unified HepG2 value across the three screens; for Pb ODA (this manuscript) HepG2 cytoxicity: HepG2 cytotoxicity listed with the Pb ODA data set (this manuscript)
# In short: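 Percent inhibition derived from fluorescent viability readout, normalised to DMSO (negative) and 50 μM doxorubicin (positive). Compound incubation lasted 48 h at 37°C, 5% CO2, with 2,500 HepG2 cells/well in MEM plus 10% FBS and 1% NEAA.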
# [1] = system: 3D7-strain P. falciparum asexual parasites; assay: P. falciparum asexual growth inhibition assay (Pf GIA); type: cell-based, Plasmodium falciparum; conditions: dose response confirmation; read-out: Pf asexual growth inhibition assays IC50
# In short: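 Parasites at 0.25% parasitemia, 2% hematocrit in Albumax-supplemented RPMI were exposed to compounds in dose response for 72 h at 37°C under 5% CO2/5% O2. Viability was read as LDH activity (NBT/diaphorase, A650 after freeze-thaw). Percent inhibition was calculated against chloroquine and DMSO controls, mean of three biological replicates.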
# [2] = system: P. berghei ookinete development; conditions: for % inhibition, Replicate A / % inhibition, Replicate B: primary screen at 1 μM
# [3] = read-out: Pb ODA IC50, this manuscript
# [4] = read-out: Pb Ookinete development assay IC50, dose response confirmation
# [5] = read-out: Pb ODA (this manuscript) IC50, P. berghei ookinete development assay, this manuscript
Compound,IC50 (HepG2 cells) [µM],Unified cytotox (HepG2 cells) [µM],IC50 [1] [µM],"Is compound selective in assay? Pb ODA active? ([2]; 1: YES, 0: NO)","% inhibition, Replicate A [2] [%]","% inhibition, Replicate B [2] [%]","IC50 [2, 3] [µM]","IC50 [2, 4] [µM]",Pb ODA (this manuscript) HepG2 cytoxicity (HepG2 cells) [µM],Is compound selective in assay? Pb ODA active? [2],"IC50 [2, 5] [µM]"
COc1ccc(NS(=O)(=O)c2cc(NC(=O)Cn3ccccc3=O)ccc2N2CCCCC2)cc1 [TCMDC-124874],100,100.00,0.489,1 (1: YES),66.12,73.52,1.27,1.27,,,
CCc1c(C)nc(-n2nc(C)cc2NC(=O)C(CC)c2ccccc2)[nH]c1=O (stereo not shown) [TCMDC-124935],0.95,,0.558,,47.36,55.92,,8.71,0.95,0 (key: 1: YES; 0: NO),8.71
CCc1c(C)nc(-n2nc(C)cc2NC(=O)c2ccc(OC)cc2OC)[nH]c1=O [TCMDC-124937],10,,0.01,,65.69,36.83,,1.51,10.00,0 (key: 1: YES; 0: NO),1.51
Cc1cc(=O)[nH]c(-n2nc(C)cc2NC(=O)C2(c3ccc(Cl)cc3)CCCC2)n1 [TCMDC-124943],3.31,,0.967,,55.02,44.00,,1.38,3.31,0 (key: 1: YES; 0: NO),1.38
Cc1ccccc1-c1cc(=O)c2cc(NC(=O)c3cccs3)ccc2o1 [TCMDC-124947],100,100.00,0.408,1 (1: YES),33.03,54.68,4.15,4.15,,,
CCN(CC)c1nc(N)c2c(N)nc3c(c2c1C#N)C(=O)CN3Cc1ccccc1 [TCMDC-125024],100,100.00,0.038,1 (1: YES),101.60,105.52,0.62,0.618,,,
Cc1cc(C2NC(=O)c3ccccc3N2)c(C)n1-c1ccc2c(c1)OCO2 (stereo not shown) [TCMDC-125051],3.47,3.47,0.051,0 (0: NO),87.88,98.84,0.85,0.854,,,
Cc1nc(NC2=NCN(CCCN3CCOCC3)CN2)nc2c(C)cccc12 [TCMDC-125086],100,,1.82,,51.18,62.28,,11.1,100.00,,11.1
CCOC(=O)C1=C(C)NC2=C(C(=O)C(C(=O)OC)C(C)C2)C1c1cc(Br)c(OCC)c(OC)c1 (stereo not shown) [TCMDC-125139],100,100.00,1.42,1 (1: YES),3.38,50.55,9.06,9.06,,,
COc1cc(Nc2ccc3cc(S(=O)(=O)N4CCCCC4C)ccc3n2)cc(OC)c1OC (stereo not shown) [TCMDC-125163],24.6,24.55,4.26,1 (1: YES),58.55,48.73,1.06,1.06,,,
CCOc1cccc(C(=O)Nc2nonc2-c2ccc(OC)c(OC)c2)c1 [TCMDC-125179],6.76,6.76,< 0.0002,0 (0: NO),52.92,35.19,7.64,7.64,,,
Cc1ccc(S(=O)(=O)N2CCCN(C(=O)c3cc(-c4ccccc4)n[nH]3)CC2)cc1 [TCMDC-125243],100,,0.273,,53.41,33.70,,5.42,100.00,1 (key: 1: YES; 0: NO),5.42
Cc1[nH]c2ccccc2c1C(=O)C(C)Sc1nnc(-c2ccccc2F)o1 (stereo not shown) [TCMDC-125312],57.5,57.54,1.27,1 (1: YES),63.08,65.66,,2.58,,,
CN(C)c1ccc(C=CC(=O)NC(=O)c2ccccc2O)cc1 [TCMDC-125391],100,100.00,0.123,1 (1: YES),87.61,62.62,,0.21,,,
O=C(c1ccco1)N1CCN(c2ccc([N+](=O)[O-])c(NC3CC3)c2)CC1 [TCMDC-125397],2.04,2.04,< 0.0002,0 (0: NO),106.00,90.44,1.16,1.16,,,
CC(Oc1ccc(NC(=O)c2cccs2)cc1)C(=O)c1ccc(Cl)cc1 (stereo not shown) [TCMDC-125438],100,,0.512,,52.47,58.23,,1.01,100.00,1 (key: 1: YES; 0: NO),1.01
Cc1ccc(Cn2c(N3CCC(C(=O)NCc4ccccn4)CC3)nc3ccccc32)cc1 [TCMDC-125442],69.2,69.18,0.469,1 (1: YES),48.51,58.27,1.18,1.18,,,
COc1ccc(Cl)cc1NC(=O)CN(C)C(=O)c1cnn(-c2ccccc2)n1 [TCMDC-125457],100,100.00,0.222,1 (1: YES),53.54,37.16,5.11,5.11,,,
O=C1C(c2ccccc2)=C(Nc2cccc(OC(F)(F)C(F)F)c2)c2ccccc21 [TCMDC-125498],100,,0.068,,29.02,52.36,,1.38,100.00,1 (key: 1: YES; 0: NO),1.38
COc1ccc(NC2=C(c3ccccc3)C(=O)c3ccccc32)cn1 [TCMDC-125501],100,,0.385,,44.98,57.32,,1.98,100.00,1 (key: 1: YES; 0: NO),1.98
